Laboratory results as given in patent US7732134B2, “Methods to predict cholesterol elevation during immunosuppressant therapy” (Novartis AG, priority 2002, dated 2010).
Each block holds one compound with its values, some of them ahead of it.

How the values were obtained:
[1] = RAD B251 clinical trial: HDL cholesterol levels by IL-1β genotype and treatment group; format: in vivo, human; details: last visit
Text: (§1) The RAD B251 study was a randomized, multicenter, double-blind, parallel group study of the efficacy and safety of everolimus (Certican™) (RAD) versus mycophenolate mofetil (MMF) used in combination with cyclosporine (CsA) (NEORAL®) and prednisone. The study consisted of three periods: a Screening period, a Baseline period and a Double-Blind Treatment period. Following the Baseline assessments, patients who meet the inclusion/exclusion criteria were randomized into one of the three treatment groups (1:1:1) once it has been ascertained that the allograft is functional and that oral medication can be tolerated (within 48 hours post-transplantation). Determination of allograft function was by the investigator's judgement and was based upon adequate urine output and evidence of falling creatinine levels. The day of randomization and administration of the first dose of study medication was recorded as Day 1 of the study. […]
(§2) A treatment period of three years followed transplantation. […] Renal biopsies were required at Baseline (may be intra-operative) and at the time of any suspected rejection. Blinded study drug administration ceased at 3 years.
(§3) Male and female patients, 16-65 years of age who are scheduled to undergo primary cadaveric, living unrelated or non-HLA identical related donor kidney transplantation, were allowed to enter the study. Patients who discontinued the study prematurely were not replaced. Each patient had to meet all of the inclusion/exclusion criteria to be eligible for entry into the study.
(§4) A total of 82 unique samples from the RAD B251 clinical trial were genotyped upon their consent to participate in the pharmacogenetic evaluation. This represents about 15% of the total population that participated in the RAD B251 clinical trial. Blood samples from each patient were collected at the individual trial sites and then shipped to Covance (Geneva, Switzerland). The genomic DNA of each patient was extracted from the blood by Covance using the PUREGENE™ DNA Isolation Kit (D-50K) (Gentra, Minneapolis, Minn.).
(§5) An analysis of covariance model was used for the analysis of the effect of genotype and treatment on cholesterol levels using the 24-month lab_b.sd2 RADB 251 clinical data set. Terms in the model include the final cholesterol level, the initial cholesterol level as the covariant, and the genotype and treatment as the main effectors. The odds ratios, 95% confidence limits, and Chi-square analysis were calculated where applicable. All statistical analyses were performed using the SAS 8.02 software. To correct for multiple testing, the Bonferroni correction method was performed.

[2] = RAD B251 clinical trial: LDL cholesterol levels by IL-1β genotype and treatment group; format: in vivo, human; details: last visit
Text: The RAD B251 study was a randomized, multicenter, double-blind, parallel group study of the efficacy and safety of everolimus (Certican™) (RAD) versus mycophenolate mofetil (MMF) used in combination with cyclosporine (CsA) (NEORAL®) and prednisone. The study consisted of three periods: a Screening period, a Baseline period and a Double-Blind Treatment period. Following the Baseline assessments, patients who meet the inclusion/exclusion criteria were randomized into one of the three treatment groups (1:1:1) once it has been ascertained that the allograft is functional and that oral medication can be tolerated (within 48 hours post-transplantation). Determination of allograft function was by the investigator's judgement and was based upon adequate urine output and evidence of falling creatinine levels. The day of randomization and administration of the first dose of study medication was recorded as Day 1 of the study. The three treatment groups are described below: • Dose Level 1: 0.75 mg RAD bid+NEORAL®+prednisone • Dose Level 2: 1.5 mg RAD bid+NEORAL®+prednisone • Comparator 1 g MMF bid+NEORAL®+prednisone Concomitant Therapy Initiation and Maintenance of NEORAL®
as §2, §3, §4, §5

[3] = RAD B251 clinical trial: total cholesterol levels by IL-1β genotype and treatment group; format: in vivo, human; details: for LS Mean Total Cholesterol Levels: RAD (1.5 and 3.0 mg/day), last visit; for odds ratio for increase in total blood cholesterol levels to a final concentration ≧240 mg/dL: RAD/NEORAL® regimen
Text: as §1, with “Following the Baseline assessments, patients who meet the inclusion/exclusion criteria were randomized into one of the three treatment groups (1:1:1) once it has been ascertained that the allograft is functional and that oral medication can be tolerated (within 48 hours post-transplantation).” left out
as §2, §3
(The values on the figures, etc. refer to the absolute serum cholesterol levels at the last visit, however during the statistical analysis this value was defined as the dependent variable and the cholesterol level at baseline as the independent variable thus automatically taking into consideration the baseline level).
as §4, with “Switzerland).” for “Switzerland). The genomic DNA of each patient was extracted from the blood by Covance using the PUREGENE™ DNA Isolation Kit (D-50K) (Gentra, Minneapolis, Minn.).”
as §5, with “performed. […]” for “performed.”

cholesterol biosynthesis = details: See El-Omar et al.; cited from earlier work
[4] = (−31) IL-1β CC genotype, MMF (2 mg/day)
[5] = (−31) IL-1β CT genotype, MMF (2 mg/day)
[6] = (−31) IL-1β TT genotype, MMF (2 mg/day)
[7] = (−511) IL-1β CC genotype, MMF (2 mg/day)
[8] = (−511) IL-1β CT genotype, MMF (2 mg/day)
[9] = (−511) IL-1β TT genotype, MMF (2 mg/day)
[10] = (−31) IL-1β CC genotype, RAD (1.5 and 3.0 mg/day)
[11] = (−31) IL-1β CT genotype, RAD (1.5 and 3.0 mg/day)
[12] = (−31) IL-1β TT genotype, RAD (1.5 and 3.0 mg/day)
[13] = (−511) IL-1β CC genotype, RAD (1.5 and 3.0 mg/day)
[14] = (−511) IL-1β CT genotype, RAD (1.5 and 3.0 mg/day)
[15] = (−511) IL-1β TT genotype, RAD (1.5 and 3.0 mg/day)

LS Mean HDL levels [1, 4]: 50.4 mg/dL
LS Mean HDL levels [1, 5]: 56.8 mg/dL
LS Mean HDL levels [1, 6]: 45.5 mg/dL
LS Mean HDL levels [1, 7]: 45.5 mg/dL
LS Mean HDL levels [1, 8]: 56.8 mg/dL
LS Mean HDL levels [1, 9]: 50.4 mg/dL
LS Mean LDL Levels [2, 4]: 143.1 mg/dL
LS Mean LDL Levels [2, 5]: 119.8 mg/dL
LS Mean LDL Levels [2, 6]: 107.8 mg/dL
LS Mean LDL Levels [2, 7]: 113.9 mg/dL
LS Mean LDL Levels [2, 8]: 118.6 mg/dL
LS Mean LDL Levels [2, 9]: 143.7 mg/dL
Compound: COc1c(C)c2c(c(O)c1C/C=C(\C)CCC(=O)OCCN1CCOCC1)C(=O)OC2 [MMF, mycophenolate mofetil]

LS Mean HDL levels [1, 10]: 65.1 mg/dL
LS Mean HDL levels [1, 11]: 55 mg/dL
LS Mean HDL levels [1, 12]: 48.4 mg/dL
LS Mean HDL levels [1, 13]: 47.6 mg/dL
LS Mean HDL levels [1, 14]: 54.9 mg/dL
LS Mean HDL levels [1, 15]: 68.4 mg/dL
LS Mean LDL Levels [2, 10]: 145.1 mg/dL
LS Mean LDL Levels [2, 11]: 124.1 mg/dL
LS Mean LDL Levels [2, 12]: 112.2 mg/dL
LS Mean LDL Levels [2, 13]: 112.5 mg/dL
LS Mean LDL Levels [2, 14]: 123.6 mg/dL
LS Mean LDL Levels [2, 15]: 144.5 mg/dL
LS Mean Total Cholesterol Levels ([3]; (−31) IL-1β CC genotype): 291.1 mg/dL
LS Mean Total Cholesterol Levels ([3]; (−31) IL-1β CT genotype): 240.4 mg/dL
LS Mean Total Cholesterol Levels ([3]; (−31) IL-1β TT genotype): 216.6 mg/dL
LS Mean Total Cholesterol Levels ([3]; (−511) IL-1β CC genotype): 217.3 mg/dL
LS Mean Total Cholesterol Levels ([3]; (−511) IL-1β CT genotype): 242.9 mg/dL
LS Mean Total Cholesterol Levels ([3]; (−511) IL-1β TT genotype): 290.3 mg/dL
odds ratio for increase in total blood cholesterol levels to a final concentration ≧240 mg/dL ([3]; patients with a C at position (-31) in the IL-1β gene promoter (CC-CT vs TT)): 7.23
odds ratio for increase in total blood cholesterol levels to a final concentration ≧240 mg/dL ([3]; patients with a T at position (-511) in the IL-1β gene promoter (CT-TT vs CC)): 5.67
Compound: CO[C@H]1C[C@@H]2CC[C@@H](C)[C@@](O)(O2)C(=O)C(=O)N2CCCC[C@H]2C(=O)O[C@H]([C@H](C)C[C@@H]2CC[C@@H](OCCO)[C@H](OC)C2)CC(=O)[C@H](C)/C=C(\C)[C@@H](O)[C@@H](OC)C(=O)[C@H](C)C[C@H](C)/C=C/C=C/C=C/1C [RAD, everolimus]

Compound: IL-1β: interleukin-1-beta, cytokine reported to inhibit cholesterol biosynthesis
inhibition of cholesterol biosynthesis (cholesterol biosynthesis): 25%
